Data from patent publication USRE39634E1, “Bisarylimidazoly fatty acid amide hydrolase inhibitors” (Bristol-Myers Squibb Company, priority 2001, dated 2007).

Legend:
[1] = target: T1, human FAAH (Homo sapiens, UniProt O00519); assay: Determination of FAAH activity (membrane homogenates of H4-FAAH cells, [3H]-anandamide hydrolysis); assay type: biochemical; details: transfected human FAAH, H4-FAAH cell membranes, 10 μM anandamide, room temperature, one hour
T1 construct: expressed in transfected cells; host or cells: H4 cells stably transfected with human FAAH (Geneticin selection); crude membrane homogenates
T1 sequence (O00519 1-579): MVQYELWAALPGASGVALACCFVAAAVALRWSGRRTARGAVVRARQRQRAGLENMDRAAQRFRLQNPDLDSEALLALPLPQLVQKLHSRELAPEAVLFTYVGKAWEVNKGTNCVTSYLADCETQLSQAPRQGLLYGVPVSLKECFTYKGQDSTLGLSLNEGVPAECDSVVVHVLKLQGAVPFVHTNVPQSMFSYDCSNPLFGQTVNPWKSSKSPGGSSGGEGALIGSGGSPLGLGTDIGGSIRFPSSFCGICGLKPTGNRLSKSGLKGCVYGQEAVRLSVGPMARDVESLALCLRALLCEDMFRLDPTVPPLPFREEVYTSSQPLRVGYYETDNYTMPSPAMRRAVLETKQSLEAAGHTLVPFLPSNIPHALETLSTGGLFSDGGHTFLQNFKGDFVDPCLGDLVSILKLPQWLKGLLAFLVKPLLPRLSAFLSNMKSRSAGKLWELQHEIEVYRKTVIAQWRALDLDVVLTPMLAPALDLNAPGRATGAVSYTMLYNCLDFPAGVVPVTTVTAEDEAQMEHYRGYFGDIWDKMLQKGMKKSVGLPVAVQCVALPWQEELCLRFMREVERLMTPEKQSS
Experimental: Homogenates of crude membranes were prepared from H4 cells that express transfected human FAAH (H4-FAAH cells). Briefly, cells were grown in DMEM supplemented with 10% FBS and Geneticin at a final concentration of 500 μg/ml (Gibco BRL, Rockville, Md.). Confluent cultures of H4-FAAH cells were rinsed twice with phosphate-buffered saline [138 mM NaCl, 4.1 mM KCl, 5.1 mM Na2PO4, 1.5 mM KH2PO4 (pH 7.5), 37° C.] and incubated for 5-10 min. at 4° C. in lysis buffer [1 mM sodium bicarbonate]. Cells were transferred from plates to polypropylene tubes (16×100 mm), homogenized and centrifuged at 32,000×g for 30 min. Pellets were resuspended by homogenization in lysis buffer and centrifuged at 32,000×g for 30 min. Pellets were resuspended in lysis buffer (15-20 μg protein/ml) then stored at −80° C. until needed. On the day of an experiment, membranes were diluted to 2.67 μg protein/ml in 125 mM Tris-Cl, pH 9.0
Activity of FAAH was measured using a modification of the method described by Omeir et al., 1995 (Life Sci 56:1999, 1995). Membrane homogenates (240 ng protein) were incubated at room temperature for one hour with 1.67 nM anandamide [ethanolamine 1-^3H] (American Radiolabeled Chemical Inc., St Louis, Mo.) and 10 μM anandamide (Sigma/RBI, St. Louis, Mo.) in the absence and presence of inhibitors. The reaction was stopped by the addition of 1 volume of a solution of methanol and dichloroethane (1:1). The mixture was shaken and then centrifuged at 1000×g for 15 min. to separate the aqueous and organic phases. An aliquot of the aqueous phase, containing [^3H]-ethanolamine was withdrawn and counted by scintillation spectroscopy. Data were expressed as the percentage of [^3H]-ethanolamine formed versus vehicle, after subtraction of the background radioactivity determined in the presence of 10 μM arachidonyl trifluoromethyl ketone (ATFMK), an inhibitor of FAAH. IC50 values were determined using a four-parameter logistic equation for dose-response curves.

[2] = system: rat; assay: Rat formalin test (acute and chronic chemo-induced pain); assay type: in vivo
Experimental: FIG. 1A illustrates results from a rat formalin model used for testing acute chemo-induced pain. The single asterisk (*) applies when p is less than 0.05.
FIG. 1B illustrates results from a rat formalin model used for testing chronic chemo-induced pain. The single asterisk (*) applies when p is less than 0.05.
In FIG. 1., example 1, was active in phase I (acute phase) and phase II (chronic phase) of the rat formalin test. In animals that received 25 mg/kg, i.v, of Example 1, the number of paw flinches was reduced by nearly 40% in the first 10 minutes after administration of formalin. Paw flinches were reduced by approximately 30% over the following 50 minutes.

[3] = system: animals; assay: Hargreaves Test (acute thermal pain); assay type: in vivo; details: FIG. 2
Text: FIG. 2 illustrates results from the Hargreaves Test used for measuring acute thermal pain. The single asterisk (*) applies when p is less than 0.05 whereas the double asterisk (**) applies when p is less than 0.01. n=6.

[4] = system: animals with a neuropathic injury; assay: Chung model of neuropathic pain; assay type: in vivo
Text: FIG. 3 illustrates results from the Chung Model used for measuring neuropathic pain. The single asterisk (*) applies when p is less than 0.05 whereas the double asterisk (**) applies when p is less than 0.01. n=9-10.

SMILES | IC50 [1] [nM] | also measured
Cc1nc(-c2ccccc2)c(-c2ccccc2)n1CCCCCNC(=O)Oc1ccccc1 [Example 31, [5-(2-Methyl-4,5-diphenyl-imidazol-1-yl)-pentyl]-carbamic acid phenyl ester] | 10 to 100 | –
COc1ccccc1OC(=O)NCCCCCn1c(C)nc(-c2ccccc2)c1-c1ccccc1 [Example 40, [5-(2-Methyl-4,5-diphenyl-imidazol-1-yl)-pentyl]-carbamic acid 2-methoxy-phenyl ester] | 100 to 1000 | –
CC(C)=NOC(=O)NCCCCCCn1c(C)nc(-c2ccccc2)c1-c1ccccc1 [Example 6, 2-Propanone,O-[6-(2-methyl-4,5-diphenyl-1H-imidazol-1-yl)hexylaminocarbonyl]oxime] | 10 to 100 | –
Cc1nc(-c2ccccc2)c(-c2ccccc2)n1CCCCCCNC(=O)Oc1ccccc1F [Example 1, [6-(2-Methyl-4,5-diphenyl-imidazol-1-yl)-hexyl]-carbamic acid 2-fluoro-phenyl ester] | < 10 | reduction of number of paw flinches ([2]; 25 mg/kg, i.v., first 10 minutes after administration of formalin): ~40%; reduction of paw flinches ([2]; 25 mg/kg, i.v., following 50 minutes): approximately 30%; activity in phase I (acute phase) and phase II (chronic phase) of the rat formalin test ([2]; FIG. 1): active; latency to paw withdrawal [3]: increased significantly; onset of anti-neuropathic effect ([4]; 20 mg/kg, versus 100 mg/kg gabapentin): earlier onset of action compared to 100 mg/kg gabapentin; threshold for withdrawal of the injured paw ([4]; light touch stimulus, FIG. 3): increased (toward normal) in a dose-dependent fashion
Cc1ccccc1OC(=O)NCCCCCCCn1c(C)nc(-c2ccccc2)c1-c1ccccc1 [Example 26, [7-(2-Methyl-4,5-diphenyl-imidazol-1-yl)-heptyl]-carbamic acid o-tolyl ester] | 10 to 100 | –
CCc1nc(-c2ccccc2)c(-c2ccccc2)n1CCCCCCNC(=O)OC(C)CC (stereo not drawn) [Example 3] | 1000 to 10000 | –
